Measured values taken from patent publication US10016486B1, “Methods and compositions using AMPK activators for pharmacological prevention of chronic pain” (ARIZONA BOARD OF REGENTS ON BEHALF OF THE UNIVERSITY OF …, priority 2013, dated 2018).
Entries after “also recorded” stand apart in the source; their conditions may differ.

Assays:
[1] = test system: translation regulation signaling pathways and nascent protein synthesis in injured nerves neurons; settings: previously demonstrated; cited from earlier work
[2] = test system: neuropathic allodynia induced by peripheral nerve injury; settings: previously demonstrated; cited from earlier work
[3] = test system: Male ICR mice; assay: Plantar incision model: hyperalgesic priming precipitated by intraplantar PGE2 on day 14; format: in vivo
Procedure: (§1) Behavior testing: For the testing, animals were placed in acrylic boxes with wire mesh floors and allowed to habituate for approximately 1 h on all testing days. Paw withdrawal thresholds were measured using calibrated von Frey filaments (Stoelting, Wood Dale, Ill.) by stimulating the plantar aspect of left hind paw using the up-down method (Chaplan et al., 1994). Plantar incision and behavioral testing: Prior to surgery all animals were assessed for paw withdrawal thresholds. A mouse model of incisional pain was used for this study (Banik et al., 2006). […] Sham controls underwent the same procedure but without the incision. The skin was apposed with 2 sutures of […]. […] The paw withdrawal thresholds were again measured at 1 h, 3 h and 24 h following the PGE2 injection. Statistical Analysis and Data Presentation: Data are shown as means and the standard error of the mean (±SEM) of 6 animals (for behavioral studies). Graph plotting and statistical analysis used Graphpad Prism Version 5.03 (Graph Pad Software, Inc. San Diego, Calif., USA). Statistical evaluation was performed by one- or two-way analysis of variance (ANOVA), followed by appropriate post-hoc tests. The a priori level of significance at 95% confidence level was considered at p<0.05.

[4] = test system: Male ICR mice; assay: Plantar incision model: acute mechanical hypersensitivity (paw withdrawal thresholds, von Frey filaments); format: in vivo
Procedure: as §1

[5] = test system: AMPK; settings: independent of upstream kinase LKB1; Lee et al., 2011; read-out: EC50, stimulation of AMPK kinase activity through direct activation; cited from earlier work
[6] = test system: Male ICR mice; assay: Wound healing and wound closure after plantar incision (H & E staining); settings: maximal doses (resveratrol 10 μg intraplantar, metformin 200 mg/kg i.p., OSU53 10 or 30 μg intraplantar); for wound size vs vehicle treated group: Day 3 after plantar incision; for wound closure: Day 7 after plantar incision
Procedure: Experimental animals: Male ICR mice (Harlan, 20-25 g) were used for the study.
Immunohistochemistry: To determine re-epithelialization, plantar skin was excised from the left hind paw of mice either 3 days or 7 days following plantar incision surgery. The skin was immediately cryoprotected and frozen in O.C.T compound and sectioned (20 μm) on cryostat. The sections were then fixed in formalin and immersed in 0.1% hematoxylin for 3 minutes, washed in tap water, then immersed in 0.1% eosin for 3 minutes, and dehydrated through graded ethanol (Protocol from University of Michigan Center for Organogenesis). Finally sections were coverslipped with Permount (Fisher, Pittsburgh, Pa.). The sections were imaged and the width between 2 epithelial edges was measured using Olympus BX51 microscope.

[7] = general statement; cited from earlier work
[8] = test system: ERK and mTOR signaling in sensory neurons; settings: time- and concentration-dependent; previously demonstrated; cited from earlier work
[9] = test system: Male ICR mice; settings: local injection of resveratrol into the hind paw following plantar incision; previously demonstrated; cited from earlier work
[10] = test system: Male ICR mice; settings: local injection of resveratrol into the hind paw following plantar incision; previously demonstrated; cited from earlier work; remark: listed apart in the source
[11] = OSU53 10 or 30 μg injected locally into the hind paw around the incision
[12] = metformin lower doses (30, 100, 150) intra-peritoneal for 4 days starting 2 days prior to surgery
[13] = metformin maximal dose 200 mg/kg intra-peritoneal for 4 days starting 2 days prior to surgery

For N#Cc1c(O)c2c(-c3ccc(-c4ccccc4O)cc3)csc2[nH]c1=O [A-769662], which “translation regulation signaling pathways and nascent protein synthesis in injured nerves neurons” value [1] is on record?
The value was “inhibited”.

What about the “neuropathic allodynia induced by peripheral nerve injury” value [2] of the same compound?
Its value is “resolution of neuropathic allodynia”.

And the “hyperalgesic priming following PGE2 injection on day 14” value ([3]; A-769662 30 mg/kg intra-peritoneal for 4 days starting 2 days prior to surgery)?
Its value is “significantly blocked”.

What about the “plantar incision-induced acute mechanical hypersensitivity” value ([4]; A-769662 30 mg/kg intra-peritoneal for 4 days starting 2 days prior to surgery, 30 mg/kg) of the same compound?
The value was “did not block; also recorded: not effective”.

Which results are given for CC1(CN2C(=O)S/C(=C\c3ccc(NS(=O)(=O)c4ccc([N+](=O)[O-])c(C(F)(F)F)c4)cc3)C2=O)CCCCC1 [OSU53]?
EC50 [5]: 300 nM; hyperalgesic priming after PGE2 injection on day 14 [3, 11]: significantly blocked; also recorded: dose-relatedly blocked; plantar incision-induced acute mechanical hypersensitivity [4, 11]: significantly blocked; also recorded: dose-relatedly blocked

With CN(C)C(=N)N=C(N)N [metformin] as the compound, how does the “wound size vs vehicle treated group” value [6] read?
The value was “No differences”.

What about the wound closure [6] of the same compound?
The wound closure was “completely closed”.

And the “translation regulation signaling pathways and nascent protein synthesis in injured nerves neurons” value [1]?
Its value is “inhibited”.

And the “neuropathic allodynia induced by peripheral nerve injury” value [2]?
The value was “resolution of neuropathic allodynia”.

And the “plantar incision-induced hyperalgesic priming precipitated by PGE2” value ([3]; metformin 30, 100, 150 or 200 mg/kg intra-peritoneal for 4 days (FIG. 3 legend, all doses together))?
The value was “significantly blocked”.

And the “hyperalgesic priming following PGE2 injection on day 14” value [3, 12]?
Its value is “significantly blocked”.

What about the “hyperalgesic priming following PGE2 injection on day 14” value [3, 13] of the same compound?
The value was “prevented”.

What about the “plantar incision-induced acute hypersensitivity” value ([4]; metformin 30, 100, 150 or 200 mg/kg intra-peritoneal for 4 days (FIG. 2 legend, all doses together)) of the same compound?
The value was “significantly blocked”.

What about the “plantar incision-induced acute hypersensitivity” value ([4]; metformin alone, 150 μg intra-peritoneal for 4 days starting 2 days prior to surgery (sub-efficacious dose)) of the same compound?
The value was “blunted acute hypersensitivity compared to vehicle treated mice but the effect was not significant”.

What about the “plantar incision-induced acute mechanical hypersensitivity” value [4, 12] of the same compound?
The value was “not effective”.

What about the “plantar incision-induced acute mechanical hypersensitivity” value [4, 13] of the same compound?
Its value is “prevented”.

Which “wound size vs vehicle treated group” value [6] does the source give for Oc1ccc(C=Cc2cc(O)cc(O)c2)cc1 [resveratrol] here?
Its value is “no differences”.

And the wound closure [6]?
The wound closure was “completely closed”.

What about the bioavailability [7] of the same compound?
Its bioavailability is “lacks bioavailability”.

And the “ERK and mTOR signaling in sensory neurons” value [8]?
The value was “profoundly inhibits”.

And the “plantar incision-induced hyperalgesic priming precipitated by PGE2” value ([3]; topical resveratrol 100 μg at the time of incision and 1 day post incision, PGE2 100 ng on day 14)?
Its value is “significantly blocked; also recorded: prevented the development of hyperalgesic priming”.

And the “plantar incision-induced hyperalgesic priming precipitated by PGE2” value ([3]; topical resveratrol 100 μg once immediately following incision, PGE2 100 ng on day 14)?
Its value is “abolished; also recorded: prevented the development of hyperalgesic priming”.

And the “hyperalgesic priming induced by incision” value [9]?
Its value is “attenuates; also recorded: dose-relatedly reverses”.

And the incision-mediated mechanical hypersensitivity [10]?
Its incision-mediated mechanical hypersensitivity is “attenuates; also recorded: dose-relatedly reverses”.

What about the “plantar incision-induced acute hypersensitivity” value ([4]; resveratrol alone, 3 μg injected in hind paw around incision on day of surgery and 24 hrs post-surgery (sub-efficacious dose)) of the same compound?
The value was “blunted acute hypersensitivity compared to vehicle treated mice but the effect was not significant”.

What about the “plantar incision-induced acute mechanical hypersensitivity” value ([4]; topical resveratrol cream (2 mg/ml in PEG), 100 μg, applied once immediately following incision, vs vehicle) of the same compound?
Its value is “blunted; also recorded: blunted hypersensitivity though not significant”.

And the “plantar incision-induced acute mechanical hypersensitivity” value ([4]; topical resveratrol cream, 100 μg, applied twice: immediately following incision and 24 hrs following incision, vs vehicle)?
The value was “significantly blocked; also recorded: significantly attenuated”.
